Test results as given in patent US6251894A, “1-(1,2-disubstituted piperidinyl)-4 (fused imidazole)-piperidine derivatives” (Janssen Pharmaceuticals N.V., priority 1995, dated 2001).
Read-outs that look alike come from different tables or passages of the source.

Assays:
[1] = test system: Substance P Induced Plasma Extravasation; assay: Antagonism of substance P induced plasma extravasation in guinea-pigs; type: in vivo, guinea-pig; details: Cavia porcellus, 1 hour prior to substance P
Protocol: Antagonism of Substance P Induced Plasma Extravasation in Guinea-pigs
Plasma travasation was induced by injection of substance P (2 mg/kg) in the femoral artery of female guinea-pigs. Evans Blue dye (30 mg/kg) was injected simultaneously. The test compound or solvent was administered subcutaneous (s.c.) or orally (p.o.) 1 hour prior to substance P injection. 10 minutes after challenge, the animals were checked for blue colouring (a direct measure for plasma extravasation) of the nose, the forepaws, and the conjunctiva. 30 minutes after challenge, the animals were sacrificed by CO2 gas inhalation and checked for blue colouring of the trachea and the urinary bladder. […]

[2] = test system: Substance P Induced Relaxation of the Pig Coronary Arteries; assay: Antagonism of substance P induced relaxation of the pig coronary arteries; details: 30 min incubation
Protocol: Antagonism of Substance P Induced Relaxation of the Pig Coronary Arteries
Segments of coronary arteries taken from pigs (killed by injection of an overdose of sodium pentobarbital) were inverted and mounted for recording of isometric tension in organ baths (volume 20 ml) with the endothelium at the outside. The preparations were bathed in Krebs-Henseleit solution. The solution was kept at 37° C. and gassed with a mixture of O2 /CO2 (95/5). After stabilisation of the preparations, prostaglandin F2α (10^-5 M) was administered to induce a contraction. This was repeated until contractile responses became stable. Then prostaglandin F2α was again administered and substance P (3×10^-10 M and 10^-9 M cumulatively) was added. Substance P induced endothelium dependent relaxations. After washing away the agonists, a known concentration of a compound of formula (I) was added. After an incubation period of 30 minutes, prostaglandin F2α (10^-5 M) and the same concentrations of substance P as described above were again administered in the presence of the compound to be tested.

[3] = sc, 10 min, s.c., conjunctiva, read-out: lowest active dose (LAD), conjunctiva
[4] = sc, 10 min, s.c., forepaws, read-out: lowest active dose (LAD), forepaws
[5] = sc, 10 min, s.c., nose, read-out: lowest active dose (LAD), nose
[6] = sc, 0.5 h, s.c., trachea, read-out: lowest active dose (LAD), trachea
[7] = sc, 0.5 h, s.c., urinary bladder, read-out: lowest active dose (LAD), urinary bladder
[8] = test compound concentration 3 × 10^-8 (unit not given)
[9] = test compound concentration 3 × 10^-9 (unit not given)
[10] = po, 10 min, p.o., conjunctiva, read-out: lowest active dose (LAD), conjunctiva
[11] = po, 10 min, p.o., forepaws, read-out: lowest active dose (LAD), forepaws
[12] = po, 10 min, p.o., nose, read-out: lowest active dose (LAD), nose
[13] = po, 0.5 h, p.o., trachea, read-out: lowest active dose (LAD), trachea
[14] = po, 0.5 h, p.o., urinary bladder, read-out: lowest active dose (LAD), urinary bladder

Structure (SMILES) | minimal effective dose [1, 3] | minimal effective dose [1, 4] | minimal effective dose [1, 5] | minimal effective dose [1, 6] | minimal effective dose [1, 7] | % inhibition of the response to 10^-9 M substance P [2, 8] | % inhibition of the response to 10^-9 M substance P [2, 9] | minimal effective dose [1, 10] | minimal effective dose [1, 11] | minimal effective dose [1, 12] | minimal effective dose [1, 13] | minimal effective dose [1, 14]
Cc1cc(C)cc(C(=O)N2CC[C@H](N3CCC(=C4c5ccccc5CCn5ccnc54)CC3)C[C@@H]2Cc2ccccc2)c1 (racemic) [Compound 1, (±)-cis-4-[4-(5,6-dihydro-11H-imidazo [2,1-b][3]benzazepin-11-ylidene)-1-piperidinyl]-1-(3,5-dimethylbenzoyl)-2-(phenylmethyl)piperidine] | 10 mg/kg | 10 mg/kg | 10 mg/kg | 10 mg/kg | 10 mg/kg | 52.3% | – | – | – | – | – | –
Cn1ccc2c1CCn1ccnc1C2=C1CCN([C@@H]2CCN(C(=O)c3cc(C(F)(F)F)cc(C(F)(F)F)c3)[C@@H](Cc3ccccc3)C2)CC1 (racemic) [Compound 2, (±)-trans-1-[3,5-bis(trifluoromethyl)benzoyl]-4-[4-(5,6,7,10-tetrahydro-7-methylimidazo[1,2-a]pyrrolo[3,2-d]azepin-10-ylidene)-1-piperidinyl]-2-(phenylmethyl)piperidine] | 0.16 mg/kg | 0.16 mg/kg | 0.16 mg/kg | 2.5 mg/kg | 2.5 mg/kg | 96.5% | – | – | – | – | – | –
Cn1ccc2c1CCn1ccnc1C2=C1CCN([C@H]2CCN(C(=O)c3cc(C(F)(F)F)cc(C(F)(F)F)c3)[C@@H](Cc3ccccc3)C2)CC1 (racemic) [Compound 3, (±)-cis-1-[3,5-bis(trifluoromethyl)benzoyl]-4-[4-(5,6,7,10-tetrahydro-7-methylimidazo[1,2-a]-pyrrolo[3,2-d]azepin-10-ylidene)-1-piperidinyl]-2-(phenylmethyl)piperidine] | 2.5 mg/kg | 2.5 mg/kg | 2.5 mg/kg | 10 mg/kg | 10 mg/kg | – | 37.3% | – | – | – | – | –
O=C(c1cc(C(F)(F)F)cc(C(F)(F)F)c1)N1CC[C@H](N2CCC(=C3c4ccccc4CCn4c(CO)cnc43)CC2)C[C@@H]1Cc1ccccc1 (racemic) [Compound 4, (±)-cis-1-[3,5-bis(trifluoromethyl)benzoyl]-4-[4-[5,6-dihydro-3-(hydroxymethyl)-11H-imidazo[2,1-b][3]benzazepin-11-ylidene]-1-piperidinyl]-2-(phenylmethyl)piperidine] | 10 mg/kg | 10 mg/kg | 10 mg/kg | 10 mg/kg | 10 mg/kg | 97.0% | – | – | – | – | – | –
O=Cc1cnc2n1CCc1ccccc1C2=C1CCN([C@H]2CCN(C(=O)c3cc(C(F)(F)F)cc(C(F)(F)F)c3)[C@@H](Cc3ccccc3)C2)CC1 (racemic) [Compound 11, (±)-cis-1-[3,5-bis(trifluoromethyl)benzoyl]-4-[4-(3-formyl-5,6-dihydro-11H-imidazo[2,1-b][3]benzazepin-11-ylidene)-1-piperidinyl]-2-(phenylmethyl)piperidine] | – | – | – | – | – | – | 96.1% | 10 mg/kg | 10 mg/kg | 10 mg/kg | 10 mg/kg | 10 mg/kg
COC(=O)c1cnc2n1CCc1ccccc1C2=C1CCN([C@H]2CCN(C(=O)c3cc(C(F)(F)F)cc(C(F)(F)F)c3)[C@@H](Cc3ccccc3)C2)CC1 (racemic) [Compound 17, (±)-methyl cis-11-[1-[1-[3,5-bis(trifluoromethyl)benzoyl]-2-(phenylmethyl)-4-piperidinyl]-4-piperidinylidene]-6,11-dihydro-5H-imidazo[2,1-b][3]benzazepine-3-carboxylate] | – | – | – | – | – | – | 35.3% | 10 mg/kg | 10 mg/kg | 10 mg/kg | 10 mg/kg | 10 mg/kg
O=C(c1cc(C(F)(F)F)cc(C(F)(F)F)c1)N1CC[C@@H](N2CCC(=C3c4ccccc4CCn4c(CO)cnc43)CC2)C[C@@H]1Cc1ccccc1 (relative stereo) [Compound 5] | – | – | – | – | – | – | 100.0% | 2.5 mg/kg | 2.5 mg/kg | 2.5 mg/kg | 10 mg/kg | 10 mg/kg
O=C(c1cc(C(F)(F)F)cc(C(F)(F)F)c1)N1CC[C@@H](N2CCC(=C3c4sccc4CCn4ccnc43)CC2)C[C@@H]1Cc1ccccc1 (relative stereo) [Compound 7] | 2.5 mg/kg | 10 mg/kg | 2.5 mg/kg | 10 mg/kg | 10 mg/kg | – | 83.1% | – | – | – | – | –
O=Cc1cnc2n1CCc1ccccc1C2=C1CCN([C@@H]2CCN(C(=O)c3cc(C(F)(F)F)cc(C(F)(F)F)c3)[C@@H](Cc3ccccc3)C2)CC1 (relative stereo) [Compound 16] | 2.5 mg/kg | 2.5 mg/kg | 2.5 mg/kg | 10 mg/kg | 10 mg/kg | – | 98.9% | – | – | – | – | –
O=C(c1cc(C(F)(F)F)cc(C(F)(F)F)c1)N1CC[C@@H](N2CCC(=C3c4ccsc4CCn4ccnc43)CC2)C[C@H]1Cc1ccccc1 (relative stereo) [Compound 18] | 2.5 mg/kg | 10 mg/kg | 10 mg/kg | 10 mg/kg | 10 mg/kg | – | 39.8% | – | – | – | – | –
O=C(c1cc(C(F)(F)F)cc(C(F)(F)F)c1)N1CC[C@@H](N2CCC(=C3c4ccsc4CCn4ccnc43)CC2)C[C@@H]1Cc1ccccc1 (relative stereo) [Compound 19] | 2.5 mg/kg | 2.5 mg/kg | 2.5 mg/kg | 2.5 mg/kg | 10 mg/kg | – | 78.1% | – | – | – | – | –
Cc1cc(C)cc(C(=O)N2CC[C@@H](N3CCC(=C4c5ccccc5CCn5c(CO)cnc54)CC3)C[C@@H]2Cc2ccccc2)c1 (relative stereo) [Compound 20] | 2.5 mg/kg | 2.5 mg/kg | 2.5 mg/kg | 2.5 mg/kg | 2.5 mg/kg | – | 9.5% | – | – | – | – | –
O=C(c1cc(C(F)(F)F)cc(C(F)(F)F)c1)N1CC[C@@H](N2CCC(=C3c4ccccc4CCn4ccnc43)CC2)C[C@@H]1Cc1ccccc1 (relative stereo) [Compound 22] | 10 mg/kg | 10 mg/kg | 10 mg/kg | 10 mg/kg | 10 mg/kg | – | 83.2% | – | – | – | – | –
Cc1cc(C)cc(C(=O)N2CC[C@@H](N3CCC(=C4c5ccccc5CCn5c(C=O)cnc54)CC3)C[C@@H]2Cc2ccccc2)c1 (relative stereo) [Compound 25] | 2.5 mg/kg | 2.5 mg/kg | 2.5 mg/kg | 10 mg/kg | 10 mg/kg | – | 100.0% | – | – | – | – | –
Cc1cc(C)cc(C(=O)N2CC[C@@H](N3CCC(=C4c5ccn(C)c5CCn5ccnc54)CC3)C[C@@H]2Cc2ccccc2)c1 (relative stereo) [Compound 34] | 2.5 mg/kg | 0.63 mg/kg | 0.63 mg/kg | 0.63 mg/kg | 0.63 mg/kg | – | 43.5% | – | – | – | – | –
